{"source": "patent US9561168B2", "about": "“Oral care compositions” (Colgate-Palmolive Company, priority 2011, dated 2017)", "key": {"[1]": {"system": "single species Actinomyces viscosus biofilms", "experiment": "Inhibition of single species Actinomyces viscosus biofilm formation", "type": "cell-based", "conditions": "single species A. viscosus biofilm", "protocol": "(§1) Mixed species bacteria are grown as follows: Actinomyces viscosus (ATCC #31346) is grown in trypticase soy broth supplemented with 0.6% yeast extract (TSB-YE) at 37° C., static culture. For mixed species assays, the source of bacteria is a continuous culture chemostat inoculated with A. viscosus, Lactobacillus casei (ATCC #334), Streptococcus oralis (ATCC #35037), Fusobacterium nucleatum (ATCC #10953), and Veilonella parvula (ATCC #17745). This mixed culture is maintained in a specialized complex medium in a continuous culture chemostat at 37° C."}, "[2]": {"system": "Actinomyces viscosus", "experiment": "Minimum inhibitory concentration (MIC) against Actinomyces viscosus", "type": "cell-based", "protocol": "as §1\nGallium nitrate is assessed in oral biofilm models. […] The advantage of gallium over other agents is that it appears to target the relatively starved bacteria found deeper in the biofilms that are usually less accessible to traditional antimicrobial agents."}, "[3]": {"conditions": "antimicrobial agents currently in use in oral formulations; organism not stated; cited from earlier work"}, "[4]": {"system": "five species biofilm (A. viscosus, Lactobacillus casei, Streptococcus oralis, Fusobacterium nucleatum, Veilonella parvula)", "experiment": "Mixed (five) species biofilm test on saliva-coated HAP disks", "type": "cell-based", "conditions": "250 ppm of ε-polylysine", "quoted_text": "Mixed species biofilms are preformed on saliva-coated HAP disks (scHAP). Following saliva coating, disks are inoculated with 1 ml of mixed species culture from the continuous culture chemostat described above diluted to an OD610 of ˜0.2 in 0.5×TSB. Plates are incubated for 48 h at 37° C. to allow biofilms to form.\nDisks containing preformed biofilms are transferred to a fresh 24-well culture plate and 1 ml of sterile 0.5×TSB medium containing the indicted concentration of test compound is added to each disk. Plates are incubated for 1 h at 37° C. with gentle agitation. […] Plates are sonicated for 2 min to pellet any residual HAP and supernatants are removed to fresh plates so that absorbance could be read at 610 nm.\nAll samples are tested in triplicate and the average of the three wells determined."}, "[5]": {"system": "other oral bacterial species tested", "experiment": "Antimicrobial activity against other oral bacterial species", "type": "cell-based", "conditions": "any other oral bacterial species tested (other than A. viscosus)"}}, "data": [{"compound": "O=[N+]([O-])[O-].O=[N+]([O-])[O-].O=[N+]([O-])[O-].[Ga+3]", "note": "[gallium nitrate]", "values": [{"measurement": "concentration able to inhibit formation of single species biofilms", "setting": "[1]", "value": 30, "unit": "ppm"}, {"measurement": "minimum inhibitory concentration (MIC)", "setting": "[2]", "value": "approximately 60 ppm"}]}, {"compound": "Oc1cc(Cl)ccc1Oc1ccc(Cl)cc1Cl", "note": "[triclosan]", "values": [{"measurement": "MTC values", "setting": "[3]", "value": "less than 10 ppm"}]}, {"compound": "ε-Polylysine", "values": [{"measurement": "concentration able to inhibit formation of single species biofilms", "setting": "[1]", "value": "< 1", "unit": "ppm"}, {"measurement": "minimum inhibitory concentration (MIC)", "setting": "[2]", "value": "< 1", "unit": "ppm"}, {"measurement": "inhibition of multispecies biofilm formation", "setting": "[4]", "value": "less than 20%"}, {"measurement": "antimicrobial activity against other oral bacterial species", "setting": "[5]", "value": "does not have antimicrobial activity"}]}]}
